Measured values: publication PMC7496931, “Activation of Sirtuin 2 Inhibitors Employing Photoswitchable Geometry and Aqueous Solubility” (Chemmedchem, 2020)

What was measured:
[1] = Photoisomer distribution (PSD) by HPLC-ELSD; type: physicochemical; settings: HPLC in MeOH/water, ELSD; for E/Z [%] PSD @ 365 nm: after 365 nm irradiation; for E/Z [%] PSD @ 452 nm: after 452 nm irradiation
Protocol: (§1) Photochemistry: All photoisomerization experiments were conducted under ruby light of 630 nm and total exclusion of daylight. Illumination was executed using a Bio‐Link 254 Crosslinker from Vilber‐Lourmat equipped with six Vilber‐Lourmat T8‐L lamps (8 W, 365 nm). Visible light radiation of 630 nm (ruby) and 452 nm (blue) was derived from a Paulmann FlexLED 3D strip. All compounds were irradiated in solution using spectrophotometric grade solvents. Photoisomerization and UV/Vis‐spectra measurement was conducted in quartz glass cuvettes (114‐QS, Hellma Analytics) at room temperature.

[2] = UV/Vis spectra and half-life of thermal Z→E isomerization; type: physicochemical; set-up: k of thermal Z→E isomerization (non-linear regression): unit not given here; settings: for λΔ/max absorption maximum at thermal equilibrium: 50 μM in DMSO/assay buffer; for k of thermal Z→E isomerization (non-linear regression): 50 μM
Protocol: as §1
UV/Vis Spectra and Half-Life of Thermal Isomerization
The half-life of the thermal Z→E isomerization after 5 minutes of 365 nm irradiation was determined by UV/Vis-spectroscopy. Therefore, solutions of the respective compounds (50 µM) in 5%, 50% or 90% DMSO in enzyme assay buffer (v/v) were prepared. An initial spectrum of the thermal equilibrium was recorded. After 5 minutes of irradiation with 365 nm the increase of absorbance at the thermal equilibrium maximum (λ∆max) was recorded as exemplified by compound 15c (Figure S3). Absorbance at λ = λ ∆max was plotted as a function of time. Non-linear regression yielded the half-life of the thermal Z→E isomerization (Table S1). For extrapolation of the reaction kinetics, the plateau value was set to the initial absorbance at λ=λ∆max. The following equation was used for non-linear regression:
y = (y0 − Plateau)e−kx + Plateau
Figure S3: Left: UV-Vis spectrum of 15c (50 µM) in assay buffer (5% DMSO, v/v) at the thermal equilibrium (∆) and the photostationary state (PSS) after UV irradiation (365 nm). Right:
Absorbance of 15c (50 µm) in assay buffer (5% DMSO, v/v) at λ∆max = 328 nm after 5 minutes of UV (365 nm) irradiation.
(1 picture or pasted object on this page, not shown here)

[3] = tested on: urinary bladder cancer cell line RT‐4; experiment: Cell-based activity assay (western blot of acetylation levels); set-up: species or system human; settings: RT-4 cells, 50 μM, 24 h, compounds irradiated (365 nm) prior to incubation
Protocol: Reductive stability of 15 c, 15 f and 20 a in the presence of the cellular reductant glutathione (5 mM) was confirmed by HPLC analysis (Figure S5, Table S2). For the cell‐based activity assay, we illuminated the compounds solved in DMSO with UV light (365 nm) prior to incubation with the cells. […] As expected, 15 c and 15 f increased the levels of acetylated lysines H3K18 and H3K56, which are both affirmed substrates of Sirt2. In addition, we found H4K8 hyperacetylation even though this site is usually not affected by sirtuin catalysed deacetylation, indicating a further mode of action. […] In Figure 6, we show the relative results, whereby the acetylation product was related to total target protein and to the vehicle control. Again, we found an increase in acetylated histones induced by 15 c and 15 f which proves activity of these two compounds in living cells.
Figure 6 Relative acetylation levels of protein targets after incubation with compounds at 50 μM for 24 h in urinary bladder cancer cell line RT‐4 (mean of n=2). […]
Cell-Based Activity Assay
To qualify inhibitory activity of compounds on sirtuins we used the western blot technique.
Therefore, we used precast “Mini-Protean TGX Stain-Free Gels” and corresponding “Trans-Blot Turbo Transfer Pack Mini” PVDF membranes (Biorad, Germany). For sample preparation, […]
Sirt2 in our cell line stock (Data not shown), obtained from “Deutsche Sammlung von Mikroorganismen und Zellkulturen” (DSMZ), Germany. Cells were grown in RPMI 1640 cell medium supplemented with 10% fetal bovine serum and 1% penicillin/streptomycin purchased from PAN Biotec, Germany and stored in a humidified incubator at 37 °C with 5% CO2 atmosphere. For sample preparation, cells were harvested with Trypsin/EDTA and counted in a Beckman’s Coulter Counter. In six well plates, […] were seeded out in 3 mL medium and let allow to attach for 24 h. Stock solutions of compounds (1000-fold) were prepared with DMSO and illuminated with UV light (365 nm) for 5 min. Then, cells were exposed to compounds at a final concentration of 50 µM and incubated for 24 h. Cells were detached with Trypsin/EDTA and washed with phosphate buffered saline (PBS) by centrifugation at 500 g for 5 min and resuspended in PBS. Cell pellets were lysed with a lysis buffer containing Tris […]
and freshly added 1% protease inhibitor cocktail (Sigma Aldrich, Germany) on ice, followed by sonification for 30 minutes. The protein concentration was determined by the Bradford method against bovine serum albumin (BSA) as standard. Each slot of the precast gel was loaded with 30 µg protein followed by an electrophoretic separation and a transfer onto PVDF membranes.
Blots were blocked with 10% non-fat milk powder in Tris-buffered saline containing 20 mM Tris, 145 mM NaCl and Tween 0.5% (TBST) for 2 h and incubated with primary antibody in 1:1000 dilutions (in TBST and 1% BSA) over night at 4 °C. After washing procedure, blots were incubated with secondary antibody conjugated with horse radish peroxidase (1:5000 in TBST and 1% BSA) for 2 h. All used antibodies were obtained from cell signalling (UK): anti ac.H3K9 […]
anti ac.α-tubulin (#5335), anti α-tubulin (#2125) and anti rabbit-HRP (#7074). Target protein bands were detected with Clarity Western ECL Substrate (Biorad, Germany) and recorded at an Advanced Fluorescence Imager (INTAS, Germany). Band intensity was related to internal standard of the TGX Stain-Free gels as loading control.
In order to verify the conformations of Z-15c and Z-15f obtained from our molecular docking experiments, a two-dimensional dihedral analysis was performed using MOE with 3-(2-phenyldiazenyl)-pyridine as reference compound. Both dihedrals were rotated by 360° in 5° steps. At each step, the potential energy was calculated with AMBER force field parameters and AM1-BCC partial charges applied. The diazenyl double bond of both compounds is nearly […]

[4] = 90 % DMSO (v/v) in assay buffer
[5] = 50 % DMSO (v/v) in assay buffer

melting point | E/Z [%] PSD @ 365 nm [1] | E/Z [%] PSD @ 452 nm [1] | λΔ/max absorption maximum at thermal equilibrium ([2]; 50 % DMSO (v/v)) [nm] | k of thermal Z→E isomerization (non-linear regression) [2, 5] | Structure (SMILES) | acetylation level of α-tubulin [3] | expression of total histone H3 [3] | expression of total α-tubulin protein [3] | total H4 [3] | also measured
260 °C |  |  |  |  | NC(=O)c1cncc(/N=N/c2c(O)ccc3ccccc23)c1 [7 c] |  |  |  |  | 
255 °C |  |  |  |  | Cc1cc(/N=N/c2cncc(C(N)=O)c2)cc(C)c1N [7 f] |  |  |  |  | 
254.1 °C | 14/86 | 87/13 |  |  | CCCCCCCCCCCCCC(=O)Nc1c(C)cc(/N=N/c2cncc(C(N)=O)c2)cc1C [9 g] |  |  |  |  | λΔ/max absorption maximum at thermal equilibrium ([2]; 90 % DMSO (v/v)): 345 nm; k of thermal Z→E isomerization (non-linear regression) [2, 4]: 0.02709
267 °C (dec.) | 14/86 | 91/9 | 337 | 0.9524 | Cc1cc(/N=N/c2cncc(C(N)=O)c2)cc(C)c1NC(=O)c1ccccc1 [9 h] |  |  |  |  | 
306.5 °C (dec.) | 29/71 | 93/7 | 330 | 1.212 | Cc1cc(/N=N/c2cncc(C(N)=O)c2)cc(C)c1NC(=O)c1ccc(-c2cccs2)cc1 [9 j] |  |  |  |  | 
212.1 °C (dec.) | 11/89 | 86/14 |  |  | CC(C)(C)OC(=O)NCc1ccc(/N=N/c2cncc(C(N)=O)c2)cc1 [15 c] | none of the compounds influenced | no effect | no effect | slight increase | H4K8 acetylation [3]: hyperacetylation; level of acetylated lysine H3K18 [3]: increased; level of acetylated lysine H3K56 [3]: increased; λΔ/max absorption maximum at thermal equilibrium ([2]; 5 % DMSO (v/v)): 329 nm; k of thermal Z→E isomerization (non-linear regression) ([2]; 5 % DMSO (v/v) in assay buffer): 0.002173
259.5 °C | 5/95 | 79/21 |  |  | CCCCCCCCCC(=O)NCc1ccc(/N=N/c2cncc(C(N)=O)c2)cc1 [15 f] | none of the compounds influenced | no effect | no effect | slight increase | H4K8 acetylation [3]: hyperacetylation; level of acetylated lysine H3K18 [3]: increased; level of acetylated lysine H3K56 [3]: increased; λΔ/max absorption maximum at thermal equilibrium ([2]; 90 % DMSO (v/v)): 333 nm; k of thermal Z→E isomerization (non-linear regression) [2, 4]: 0.006796
223.3 °C | 23/77 | 92/8 | 350 | 0.00906 | CC(C)(O)C#Cc1ccc(/N=N/c2cncc(C(N)=O)c2)cc1 [15 h] |  |  |  |  | 
 | 4/96 | 80/20 | 352 | 0.0207 | NC(=O)c1cncc(OCc2cccc(/N=N/c3ccc(OCc4ccccc4)cc3)c2)c1 [20 a] | none of the compounds influenced | no effect | no effect | slight increase | activity regarding the examined substrates (acetylation) [3]: did not exert any activity
202.1 °C | 2/98 | 83/17 | 324 |  | NC(=O)c1cncc(OCc2cccc(/N=N/c3ccc(F)cc3)c2)c1 [20 b] |  |  |  |  | 
